Results: ChEMBL document CHEMBL6153079, “Discovery of noncovalent diaminopyrimidine-based Inhibitors for glioblastoma via a dual FAK/DNA targeting strategy” (Eur J Med Chem, 2025)
Activity calls are given as the source filed them. No cut-off for these calls is given here.

What was measured:
[1] = test system: U-87 MG; assay: Antiproliferative activity against human U-87 MG assessed as cell growth inhibition at 0.1 to 2 uM; type: functional, cell-based; details: U-87MG ATCC
[2] = test system: U-87 MG; assay: Induction of apoptosis in human U-87 MG cells assessed as viable cells at 2 uM measured upto 24 hrs by Annexin V-FITC/PI staining based flow cytometry analysis (reference value: 98.4%); type: functional, U-87MG ATCC; details: read-out: Activity

CNC(=O)c1ccccc1Nc1nc(Nc2ccc(N3CCN(CCOC(=O)CCCc4ccc(N(CCCl)CCCl)cc4)CC3)cc2)ncc1C(F)(F)F
Activity [1]: Active
viability at 2 µM [2]: 44.2%
